Where two headings read alike, the source gives them in different places.
Legend:
[1] = test system: B16F10 (murine melanoma) cells; experiment: In vitro cytotoxicity, PrestoBlue assay, B16F10; type: cell-based; details: read-out: IC50 ± SD, B16F10
Protocol: (§1) The synthesized compounds were tested and evaluated for their cytotoxicity using an in vitro cytotoxicity assay. We studied five cancer cell lines and one non-cancerous cell line. The cells were purchased from the American Type Culture Collection (ATCC), United States, including HeLa (cervical), LoVo (colorectal), MCF-7 (breast), SKOV3 (ovarian), B16F10 (murine melanoma), and HaCaT (human keratinocyte). Dulbecco’s modified Eagle’s medium (containing 10% FBS) was used to culture HeLa, MCF-7, B16F10, and HaCaT cells, while RPMI 1640 medium (containing 10% FBS) was used for SKOV3 and LoVo cells. The cells were cultured in 25 cm^2 culture flasks (Corning, Corning, NY, USA) in a humidified atmosphere of 5% CO2 at 37 °C and passaged every three days with standard Trypsin-EDTA solution (Gibco, Thermo Fisher Scientific, Waltham, MA, USA). All compounds were initially prepared as stock solutions at a concentration of 10 mM (in DMSO). Serial dilutions were performed in the indicated medium to achieve the required concentration gradient of compounds (20 µM, 10 µM, 5 µM, 2.5 µM, 1.25 µM, 0.625 µM, 0.312 µM). The maximum percentage of DMSO used in the compound solutions was 0.1%, based on the procedure previously described by our group.
(§2) The PrestoBlue assay was performed according to the method previously reported by Strus et al.. The cells (LoVo and B16F10) were seeded in the indicated medium in a 96-well culture plate (Nest Biotechnology) at a density of 1 × 10^4 cells per well (100 µL) and incubated at 37 °C in a 5% CO2 atmosphere. After 24 h of incubation, 100 µL aliquots of the compounds in medium were added to each well, and the cells were further incubated for 48 h. After 48 h, the old medium was removed, and 100 µL of fresh medium was added. Then, 10 µL of PrestoBlue solution (Thermo Fisher Scientific, Waltham, MA, USA) was added to each well and incubated for 60 min. The fluorescence intensity was measured with excitation at 544 nm and emission at 615 nm using a Fluorstar microplate reader (BMG Labtech, Ortenberg, Germany). The results were expressed as a percentage of the intensity relative to that of control cells (non-treated cells).
(§3) Data analysis was carried out using GraphPad Prism 5.0.3. Calculations were performed using MS-Excel version 2021. The cytotoxic effect was expressed as the relative viability of treated cells (percentage growth control) and was calculated as follows: % relative viability = Ae−Ab/Ac−Ab×100% , where Ae is experimental absorbance/fluorescence intensity, Ac is the absorbance/ fluorescence intensity of growth control (only cells with medium), and Ab is the absorbance/fluorescence intensity of a blank (only medium). The IC50 values were obtained by using the sigmoidal dose–response function in GraphPad Prism. The results were expressed as mean ± standard deviation (SD).

[2] = test system: HeLa (cervix cancer) cells; experiment: In vitro cytotoxicity, crystal violet assay, HeLa; type: cell-based, human
Protocol: as §1
(§4) This assay was performed in reference to the method already described. In brief, the cell lines (HeLa, MCF-7, and SKOV-3) were seeded in the indicated medium in a 96-well culture plate (Nest Biotechnology, Wuxi, China) at a density of 1 × 10^4 cells per well (100 µL) in quadruplicates and then incubated at 37 °C in a 5% CO2 atmosphere. After 24 h of incubation, 100 µL aliquots of the compounds in medium at increasing concentrations were added to each well, and the cells were further incubated for 48 h. After the incubation period, the cells were washed with PBS twice, and then with 70% ethanol, followed by staining with 0.05% crystal violet solution in water (ChemPur, Piekary Slaskie, Poland) for 20 min. The excess crystal violet was washed out with distilled water several times. The stained cells then solubilized in 1% Triton™ X-100 Surfact-Amps (POCH SA, Gliwice, Poland) or 10% PBS. The absorbance of each well was measured using Fluostar plate reader at […].
as §3

[3] = test system: LoVo (colorectal cancer) cells; experiment: In vitro cytotoxicity, PrestoBlue assay, LoVo; type: cell-based, human; details: 48 h, read-out: IC50 ± SD, LoVo
Protocol: as §1, §2, §3

[4] = test system: MCF-7 (breast cancer) cells; experiment: In vitro cytotoxicity, crystal violet assay, MCF-7; type: cell-based, human
Protocol: as §1, §4, §3

[5] = test system: SKOV-3 (ovarian cancer) cells; experiment: In vitro cytotoxicity, crystal violet assay, SKOV-3; type: cell-based, human
Protocol: as §1, §4, §3

[6] = test system: HaCaT (human keratinocyte) cells; experiment: In vitro cytotoxicity, PrestoBlue assay, HaCaT (non-tumorigenic); type: cell-based; details: 48 h, read-out: IC50 ± SD, HaCaT
[7] = test system: cancer cell lines (MCF-7, SKOV-3, B16F10, LOVO, and HeLa) and HaCaT; experiment: In vitro cytotoxicity assay, results summarised over the cell line panel; type: cell-based; details: for Cytotoxicity in words: all tested cell lines
Protocol: The cytotoxicity properties of semi-synthesized compounds 7–15 was evaluated against five types of cancer cell lines including, human: HeLa (cervix cancer), LoVo (colorectal cancer), MCF-7 (breast cancer), SKOV-3 (ovarian cancer), and murine: B16F10 (malignant melanoma). Thus, various human tumor cell lines representing major types of malignant cancers were included in the study protocol. Non-tumorigenic HaCaT cells were used as a representative model of normal (non-cancerous) cells. The crystal violet assay and PrestoBlue assay were used to evaluate the cytotoxic/cytostatic effect. We also included the cytotoxicity data of podophyllotoxin and etoposide as reference values.
as §1, §4, §2
Data analysis was carried out using GraphPad Prism 5.0.3. Calculations were performed using MS-Excel version 2021. […]

HeLa cells = experiment: Cell cycle analysis by flow cytometry (propidium iodide); type: cell-based, human
Protocol: To determine the possible mechanisms of compounds 7 and 11 in inhibiting the proliferation of cancer cells, cell cycle analysis was performed with the flow cytometry method, as shown in Figure 3. Compound 7 was previously reported to inhibit proliferation of HaCaT cells via cell cycle arrest in G2/M [18]. As a reference, HeLa cells were treated with the indicated concentrations of compounds 7 and 11 for 24 h and 48 h, and the cell cycle phases distribution of treated cells was determined with the propidium iodide (PI) method, as previously described. The effects of novel podophyllotoxin derivatives on cell cycle phase distribution were evaluated in cells exposed to these compounds for 24 h or 48 h. Three compounds were compared: podophyllotoxin 1, KL-3 derivative 7, and its analog lacking the ester group 11.
For cell cycle analysis, HeLa cells were treated for 24 or 48 h with compounds 7 and 11 at concentrations of 5 µM and 10 µM. After the incubation period, the cells were fixed in a freezing medium (ice-cold 70% ethanol solution in PBS) and stored at −20 °C. The cell suspension was then centrifuged, washed with PBS, and resuspended in PBS containing 200 µg of DNase-free RNase A (Sigma) for 20 min at room temperature. Propidium iodide (Sigma) was added to a final concentration of 5 µg/mL, and the cells were stained for at least 2 h at 4 °C. The analysis was performed using a FACSCalibur flow cytometer (Becton Dickinson, San Diego, CA, USA) and analyzed with CellQuest software, v.3.3.

[8] = Homo sapiens; HeLa, crystal violet assay, 48 h; read-out: IC50 ± SD, HeLa
[9] = Homo sapiens, MCF7; MCF-7, crystal violet assay, 48 h; read-out: IC50 ± SD, MCF-7
[10] = Homo sapiens, SK-OV-3; SKOV-3, crystal violet assay, 48 h; read-out: IC50 ± SD, SKOV-3
[11] = Homo sapiens, HeLa, 48 h, HeLa, crystal violet assay, 48 h; read-out: IC50 ± SD, HeLa
[12] = Homo sapiens, MCF7, 48 h, MCF-7, crystal violet assay, read-out: IC50 ± SD, MCF-7
[13] = Homo sapiens, SK-OV-3, 48 h, SKOV-3, crystal violet assay, read-out: IC50 ± SD, SKOV-3
[14] = HeLa, crystal violet assay, 48 h; read-out: IC50 ± SD, HeLa
[15] = MCF-7, crystal violet assay, 48 h; read-out: IC50 ± SD, MCF-7
[16] = SKOV-3, crystal violet assay, 48 h; read-out: IC50 ± SD, SKOV-3
[17] = concentration and time not given
[18] = MCF-7, SKOV-3, B16F10, LOVO, HeLa, read-out: IC50, range over all tested cancer cell lines

SMILES | IC50 ([1]; Mus musculus, B16-F10, 48 h) [µM] | IC50 [2, 8] [µM] | IC50 ([3]; Homo sapiens) [µM] | IC50 [4, 9] [µM] | IC50 [5, 10] [µM] | IC50 ([6]; Homo sapiens) [µM] | Cytotoxicity in words [7] | IC50 [2, 11] [µM] | Selectivity Index (SI) ([2]; SI = IC50HaCaT/IC50HeLa) | IC50 [4, 12] [µM] | IC50 [5, 13] [µM] | further results
COc1cc([C@@H]2c3cc4c(cc3C=C(c3nc5ccccc5s3)[C@@H]2CO)OCO4)cc(OC)c1OC [Compound 13] | > 20 | > 20 | > 20 | > 20 | > 20 | > 20 | no effect |  |  |  |  | 
COC(=O)[C@H]1C(c2nc3ccccc3s2)=Cc2cc(O)c(O)cc2[C@H]1c1cc(OC)c(O)c(OC)c1 [Compound 14] | > 20 |  | 11.7 ± 1.02 |  |  | 13.1 ± 1.75 |  | > 20 | <1 | 11.9 ± 1.75 | 15.3 ± 1.31 | 
COC(=O)C1C(c2nc3ccccc3s2)=Cc2cc3c(cc2C1c1cc(OC)c(OC)c(OC)c1)OCO3 (stereo not drawn) [Compound 7] |  |  |  |  |  |  |  |  | 1.26 |  |  | IC50 ([1]; 48 h): 1.78 ± 0.55 µM; IC50 [2, 14]: 0.68 ± 0.05 µM; IC50 [3]: 0.83 ± 0.08 µM; IC50 [4, 15]: 0.59 ± 0.05 µM; IC50 [5, 16]: 1.1 ± 0.13 µM; IC50 [6]: 0.86 ± 0.05 µM; Cells arrested in the G2/M phase (HeLa cells; [17]): approximately 90%; IC50 [7, 18]: 0.68 to 2.88 µM
COc1cc([C@@H]2c3cc4c(cc3[C@@H](O[C@@H]3O[C@@H]5CO[C@@H](C)O[C@H]5[C@H](O)[C@H]3O)[C@H]3COC(=O)[C@H]23)OCO4)cc(OC)c1O [Compound 2, etoposide, reference compound] | 6.68 ± 2.32 |  | 2.48 ± 0.47 |  |  | 1.32 ± 0.16 |  | 5.73 ± 1.48 | 0.23 | 0.31 ± 0.017 | 3.15 ± 0.38 | 
COC(=O)c1c(-c2nc3ccccc3s2)cc2cc3c(cc2c1-c1cc(OC)c(OC)c(OC)c1)OCO3 [Compound 12] | > 20 |  | > 20 |  |  | > 20 | no effect | > 20 |  | > 20 | > 20 | 
COc1cc([C@H]2CC(c3nc4ccccc4s3)=Cc3cc4c(cc32)OCO4)cc(OC)c1OC [Compound 11] | 1.93 ± 0.25 |  | 2.88 ± 0.87 |  |  | 1.9 ± 0.14 |  | 1.54 ± 0.24 |  | 1.98 ± 0.49 | 1.79 ± 0.28 | Cells arrested in the G2/M phase (HeLa cells; higher concentrations, after 48 h of exposure): approximately 43%; IC50 [7, 18]: 0.68 to 2.88 µM; IC50 ([7]; read-out: IC50, range over all tested cell lines): 1.54 to 2.88 µM
COC(=O)C1C(c2nc3ccccc3s2)=Cc2cc3c(cc2C1c1cc(OC)c(OC)c(OC)c1)OCO3 (stereo not drawn) [Compound 10] |  |  |  |  |  |  | no cytotoxicity |  |  |  |  | IC50 ([1]; 48 h): > 20 µM; IC50 [2, 14]: > 20 µM; IC50 [3]: > 20 µM; IC50 [4, 15]: > 20 µM; IC50 [5, 16]: > 20 µM; IC50 [6]: > 20 µM
COC(=O)C1C(c2nc3cc(Cl)ccc3s2)=Cc2cc3c(cc2C1c1cc(OC)c(OC)c(OC)c1)OCO3 (stereo not drawn) [Compound 9] | > 20 | 1.81 ± 0.13 | 11.1 ± 2.55 | 2.02 ± 0.11 | 10.4 ± 0.73 | 13.2 ± 2.89 |  |  | 7.31 |  |  | IC50 ([7]; read-out: IC50, range over HeLa and MCF-7): 1.81 to 2.02 µM
COC(=O)[C@H]1C(c2nc3ccccc3s2)=Cc2cc3c(cc2[C@H]1c1cc(OC)c(O)c(OC)c1)OCO3 [Compound 15] | 3.76 ± 0.49 | 2.49 ± 0.25 | 10.9 ± 0.95 | 3.44 ± 0.81 | 3.73 ± 0.75 | 7.59 ± 0.76 |  |  | 3.05 |  |  | IC50 ([7]; read-out: IC50, range over all the cell lines tested, except for LoVo cells): 2.49 to 3.76 µM
COC(=O)[C@H]1C(c2nc3cc(C(F)(F)F)ccc3s2)=Cc2cc3c(cc2[C@H]1c1cc(OC)c(OC)c(OC)c1)OCO3 [Compound 8] | > 20 |  | > 20 |  |  | > 20 | inactive | > 20 |  | > 20 | > 20 | 
COc1cc([C@@H]2c3cc4c(cc3[C@H](O)[C@H]3COC(=O)[C@H]23)OCO4)cc(OC)c1OC [Compound 1, Podophyllotoxin] | 0.092 ± 0.05 | 0.0089 ± 0.0003 | 0.033 ± 0.0077 | 0.0039 ± 0.0005 | 0.017 ± 0.0028 | 0.0046 ± 0.0006 |  |  | 0.52 |  |  | Cells arrested in the G2/M phase (HeLa cells; [17]): approximately 90%

From article PMC12250170, “Synthesis of Novel Podophyllotoxin–Benzothiazole Congeners and Their Biological Evaluation as Anticancer Agents” (International Journal of Molecular Sciences, 2025)
